In the supplement of paper PMC10307832:

How the values were obtained:
Assay in all cases: relative viability (nuclei count vs DMSO), 5 days (fraction); higher = more cells survive
[1] = compound: CNC(=O)c1cc(Oc2ccc(NC(=O)Nc3ccc(Cl)c(C(F)(F)F)c3)cc2)ccn1 [Sorafenib] + Nc1nc2[nH]cc(CCc3ccc(C(=O)N[C@@H](CCC(=O)O)C(=O)O)cc3)c2c(=O)[nH]1 [Pemetrexed] (partner 0.2 µM)
In short: (§1)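 The day after seeding in 1536-well plates, lung cancer cell lines were treated by pin tool with a single drug, or with a fixed anchor-drug dose together with five library-drug doses (not always all listed) in √10 steps. After 5 days, a combined fix-and-stain solution (final 0.05% Triton X-100, 1% formaldehyde, 1 ug/ml Hoechst) was added. Nuclei counted on 4× images gave relative viability as treated counts over vehicle counts, reported as the median of duplicate plates.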

[2] = compound: CNC(=O)c1cc(Oc2ccc(NC(=O)Nc3ccc(Cl)c(C(F)(F)F)c3)cc2)ccn1 [Sorafenib] + NC(=O)Nc1cc(-c2cccc(F)c2)sc1C(=O)N[C@H]1CCCNC1 [AZD7762] (partner 0.2 µM)
In short: as §1

[3] = compound: CNC(=O)c1cc(Oc2ccc(NC(=O)Nc3ccc(Cl)c(C(F)(F)F)c3)cc2)ccn1 [Sorafenib] + CC(=O)Nc1cccc(-n2c(=O)n(C3CC3)c(=O)c3c(Nc4ccc(I)cc4F)n(C)c(=O)c(C)c32)c1 [Trametinib] (partner 0.02 µM)
In short: as §1

[4] = compound: CNC(=O)c1cc(Oc2ccc(NC(=O)Nc3ccc(Cl)c(C(F)(F)F)c3)cc2)ccn1 [Sorafenib] + Nc1ncn([C@H]2C[C@H](O)[C@@H](CO)O2)c(=O)n1 [Decitabine] (partner 2 µM)
In short: as §1

[5] = compound: CNC(=O)c1cc(Oc2ccc(NC(=O)Nc3ccc(Cl)c(C(F)(F)F)c3)cc2)ccn1 [Sorafenib] + CS(=O)(=O)N1CCN(Cc2cc3nc(-c4cccc5[nH]ncc45)nc(N4CCOCC4)c3s2)CC1 [Pictilisib] (partner 1 µM)
In short: as §1

Row | Cell Line | relative viability ([1]; first compound 0.08 µM) | relative viability ([1]; first compound 2.53 µM) | relative viability ([1]; first compound 8 µM) | relative viability ([2]; first compound 0.08 µM) | relative viability ([2]; first compound 0.253 µM) | relative viability ([2]; first compound 2.53 µM) | relative viability ([2]; first compound 8 µM) | relative viability ([3]; first compound 0.08 µM) | relative viability ([3]; first compound 0.253 µM) | relative viability ([3]; first compound 2.53 µM) | relative viability ([3]; first compound 8 µM) | relative viability ([4]; first compound 0.08 µM) | relative viability ([4]; first compound 0.253 µM) | relative viability ([4]; first compound 2.53 µM) | relative viability ([5]; first compound 0.08 µM) | relative viability ([5]; first compound 0.253 µM) | relative viability ([5]; first compound 2.53 µM) | relative viability ([5]; first compound 8 µM) | relative viability ([1]; first compound 0.253 µM) | relative viability ([4]; first compound 8 µM)
1 | NCI-H1793 | 1.24 | 1.11 | 0.529 | 0.926 | 0.306 | 0.385 | 0.146 | 0.398 | 0.429 | 0.325 | 0.253 | 0.531 | 0.535 | 0.464 | 0.313 | 0.333 | 0.256 | 0.195 | – | –
2 | NCI-H1734 | 0.431 | – | 0.374 | 0.572 | 0.497 | 0.505 | – | 0.71 | 0.646 | 0.577 | 0.324 | 0.479 | 0.445 | 0.484 | 0.465 | 0.469 | 0.471 | 0.248 | 0.415 | 0.431
3 | LOU-NH91 | 0.419 | 0.436 | – | 0.804 | 0.721 | 0.876 | 0.671 | 0.782 | 0.769 | 0.837 | 0.746 | 0.807 | 0.829 | 0.87 | 0.557 | 0.543 | 0.585 | 0.491 | 0.37 | 0.845
4 | HARA | 0.246 | 0.257 | 0.233 | 0.317 | 0.554 | 0.217 | 0.315 | 0.626 | – | 0.233 | 0.228 | 0.633 | 0.465 | 0.592 | 0.373 | 0.341 | 0.411 | 0.327 | 0.237 | 0.461
5 | HCC-44 | 0.652 | 0.599 | 0.61 | 0.99 | 0.938 | 0.909 | – | 1.07 | 1.04 | 1.01 | – | – | 0.862 | 0.886 | 0.628 | 0.693 | 0.673 | 0.549 | 0.607 | 0.866
6 | NCI-H358 | 0.168 | 0.145 | 0.144 | 0.539 | – | 0.79 | 0.368 | 0.14 | 0.143 | 0.116 | 0.107 | 0.224 | 0.222 | 0.217 | 0.364 | 0.393 | 0.469 | 0.184 | 0.146 | 0.121
7 | NCI-H596 | 0.495 | 0.563 | 0.52 | 1.21 | 1 | 0.94 | 0.819 | 0.844 | 0.735 | 0.807 | 0.75 | 0.987 | 1.01 | 1.16 | 0.354 | 0.436 | 0.374 | 0.372 | 0.47 | 1.05
8 | LK-2 | 0.331 | 0.303 | 0.194 | 0.394 | 0.338 | 0.413 | 0.134 | 0.78 | 0.764 | 0.512 | 0.239 | 0.329 | 0.235 | 0.236 | 0.588 | – | 0.722 | 0.374 | 0.254 | 0.182
